Patent US20210101899A1, “INHIBITORS OF MUTANT ISOCITRATE DEHYDROGENASES AND COMPOSITIONS AND METHODS THEREOF” (IsoCure Biosciences Inc., priority 2016, published 2021)

Experiments:
Assay type in all cases: biochemical
[1] = target: IDH1 (R132C) (Homo sapiens, UniProt O75874, R132C); experiment: IDH enzyme assay, NADPH depletion by diaphorase/resazurin coupled detection; conditions: pre-incubated with enzyme for 1 h at room temperature; 500 μM a-Ketoglutarate+15 μM NADPH; 10-dose, 3-fold dilution from 10 μM; read-out: Compound IC50 (nM) IDH1 (R132C)
Chain of IDH1 (R132C) (O75874 whole entry R132C): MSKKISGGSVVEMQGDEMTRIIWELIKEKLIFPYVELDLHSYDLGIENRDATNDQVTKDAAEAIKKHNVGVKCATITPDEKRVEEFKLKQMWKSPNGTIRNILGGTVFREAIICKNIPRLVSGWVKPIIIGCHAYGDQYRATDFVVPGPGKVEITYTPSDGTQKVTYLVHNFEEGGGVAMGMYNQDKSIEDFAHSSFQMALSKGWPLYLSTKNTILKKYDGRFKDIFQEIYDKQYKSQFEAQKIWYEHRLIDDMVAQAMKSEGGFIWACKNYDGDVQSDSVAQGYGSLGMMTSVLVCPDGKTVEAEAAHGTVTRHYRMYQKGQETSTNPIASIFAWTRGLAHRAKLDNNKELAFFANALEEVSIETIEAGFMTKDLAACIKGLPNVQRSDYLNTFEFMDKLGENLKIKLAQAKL
Experimental: (§1) Compounds were tested against 3 enzymes, as provided below. Compounds were tested in 10-dose IC50 mode with 3-fold serial dilution at a starting concentration of 10 μM. Control Compounds were tested in 10-dose IC50 mode with 3-fold serial dilution starting at 1 mM or 10 mM. Assay Format: The production or depletion of NADPH by IDH enzymes was measured by diaphorase/resazurin coupled detection. Fluorescence measurement: Ex/Em=535/590 by EnVision. Compounds were pre-incubated with enzyme for 1 h at room temperature. Standard substrate: 1500 μM a-Ketoglutarate+15 μM NADPH for IDH1 (R132H). 500 μM a-Ketoglutarate+15 μM NADPH for IDH1 (R132C). 65 μM Isocitrate+50 μM NADP for IDH1.

[2] = target: IDH1 (R132H) (Homo sapiens, UniProt O75874, R132H); experiment: as above; conditions: pre-incubated with enzyme for 1 h at room temperature; 1500 μM a-Ketoglutarate+15 μM NADPH; 10-dose, 3-fold dilution from 10 μM; read-out: Compound IC50 (nM) IDH1 (R132H)
Chain of IDH1 (R132H) (O75874 whole entry R132H): as the sequence (O75874 whole entry R132C) above, with C132H counted along it
Experimental: as §1

[3] = target: IDH1 (Homo sapiens, UniProt O75874); experiment: IDH enzyme assay, NADPH production by diaphorase/resazurin coupled detection; conditions: IDH1 WT; pre-incubated with enzyme for 1 h at room temperature; 65 μM Isocitrate+50 μM NADP; 10-dose, 3-fold dilution from 10 μM; read-out: Compound IC50 (nM) IDH1
Chain of IDH1 (O75874 whole entry): as the sequence (O75874 whole entry R132C) above, with C132R counted along it
Experimental: as §1

SMILES | IC50 [1] | IC50 [2] | IC50 [3]
C=CC(=O)Nc1cccc(NC(=O)c2nn(Cc3ccc(F)cc3)c3c2CN(C(=O)c2ccc[nH]2)CC3C)c1 (stereo not shown) [ISO-2-4, N-(3-acrylamidophenyl)-1-(4-fluorobenzyl)-7-methyl-5-(1H-pyrrole-2-carbonyl)-4,5,6,7-tetrahydro-1H-pyrazolo[4,3-c]pyridine-3-carboxamide] | 121 nM | 49 nM | > 10000 nM
C=CC(=O)Nc1cc(NC(=O)c2nn(Cc3ccc(F)cc3)c3c2CN(C(=O)c2ccc[nH]2)CC3C)ccc1Cl (stereo not shown) [ISO-2-29, N-(3-acrylamido-4-chlorophenyl)-1-(4-fluorobenzyl)-7-methyl-5-(1H-pyrrole-2-carbonyl)-4,5,6,7-tetrahydro-1H-pyrazolo [4,3-c]pyridine-3-carboxamide] | 61 nM | 14 nM | 
C=CC(=O)N1CCc2ccc(NC(=O)c3nn(Cc4ccc(F)cc4)c4c3CN(C(=O)c3ccc[nH]3)CC4C)cc21 (stereo not shown) [ISO-2-31, N-(1-acryloylindolin-6-yl)-1-(4-fluorobenzyl)-7-methyl-5-(1H-pyrrole-2-carbonyl)-4,5,6,7-tetrahydro-1H-pyrazolo[4,3-c]pyridine-3-carboxamide] | 27 nM | 5 nM | 
C=CC(=O)N1CCC(NC(=O)c2nn(Cc3ccc(F)cc3)c3c2CN(C(=O)c2ccc[nH]2)CC3C)CC1 (stereo not shown) [ISO-2-26, N-(1-acryloylpiperidin-4-yl)-1-(4-fluorobenzyl)-7-methyl-5-(1H-pyrrole-2-carbonyl)-4,5,6,7-tetrahydro-1H-pyrazolo[4,3-c]pyridine-3-carboxamide] | > 10000 nM | > 10000 nM | > 10000 nM
C=CC(=O)Nc1cccc(Cn2nc(C(=O)Nc3cccc(C)c3)c3c2C(C)CN(C(=O)c2ccc[nH]2)C3)c1 (stereo not shown) [ISO-2-27, 1-(3-acrylamidobenzyl)-7-methyl-5-(1H-pyrrole-2-carbonyl)-N-(m-tolyl)-4,5,6,7-tetrahydro-1H-pyrazolo[4,3-c]pyridine-3-carboxamide] | 127 nM | 25 nM | > 10000 nM
C=CC(=O)N1CC(NC(=O)c2nn(Cc3ccc(F)cc3)c3c2CN(C(=O)c2ccc[nH]2)CC3C)C1 (stereo not shown) [ISO-2-10, N-(1-acryloylazetidin-3-yl)-1-(4-fluorobenzyl)-7-methyl-5-(1H-pyrrole-2-carbonyl)-4,5,6,7-tetrahydro-1H-pyrazolo[4,3-c]pyridine-3-carboxamide] | 9500 nM | > 10000 nM | > 10000 nM
C=CC(=O)Nc1ccc2c(Cn3nc(C(=O)Nc4cccc(C)c4)c4c3C(C)CN(C(=O)c3ccc[nH]3)C4)cccc2c1 (stereo not shown) [ISO-2-38, 1-((6-acrylamidonaphthalen-1-yl)methyl)-7-methyl-5-(1H-pyrrole-2-carbonyl)-N-(m-tolyl)-4,5,6,7-tetrahydro-1H-pyrazolo[4,3-c]pyridine-3-carboxamide] | 4 nM | 0.5 nM | 
C=CC(=O)NCc1cc(Cn2nc(C(=O)Nc3cccc(C)c3)c3c2C(C)CN(C(=O)c2ccc[nH]2)C3)ccc1F (stereo not shown) [ISO-2-2, 1-(3-(acrylamidomethyl)-4-fluorobenzyl)-7-methyl-5-(1H-pyrrole-2-carbonyl)-N-(m-tolyl)-4,5,6,7-tetrahydro-1H-pyrazolo[4,3-c]pyridine-3-carboxamide] | 152 nM | 33 nM | > 10000 nM
CC1CN(C(=O)c2ccc[nH]2)Cc2c(C(=O)Nc3cccc(NC(=O)CCl)c3)nn(Cc3ccc(F)cc3)c21 (stereo not shown) [ISO-2-5, N-(3-(2-chloroacetamido)phenyl)-1-(4-fluorobenzyl)-7-methyl-5-(1H-pyrrole-2-carbonyl)-4,5,6,7-tetrahydro-1H-pyrazolo [4,3-c]pyridine-3-carboxamide] | 2 nM | 3 nM | > 10000 nM
C=CC(=O)NCc1cc(F)ccc1Cn1nc(C(=O)Nc2cccc([C@H](C)O)c2)c2c1C(C)CN(C(=O)c1ccc[nH]1)C2 (stereo partly drawn) [ISO-2-8, 1-(2-(acrylamidomethyl)-4-fluorobenzyl)-N-(3-((S)-1-hydroxyethyl)phenyl)-7-methyl-5-(1H-pyrrole-2-carbonyl)-4,5,6,7-tetrahydro-1H-pyrazolo[4,3-c]pyridine-3-carboxamide] | 154 nM | 52 nM | > 10000 nM
C=CC(=O)Nc1cc(NC(=O)c2nn(Cc3ccc(F)cc3)c3c2CN(C(=O)c2ccc[nH]2)C[C@H]3C)ccc1OC [ISO-2-30-R] | 14 nM | 6 nM | 2210 nM
Cc1cccc(NC(=O)c2nn(Cc3ccc(F)c(NC(=O)/C=C/CCl)c3)c3c2CN(C(=O)c2ccc[nH]2)CC3C)c1 (stereo not shown) [ISO-2-36, (E)-1-(3-(4-chlorobut-2-enamido)-4-fluorobenzyl)-7-methyl-5-(1H-pyrrole-2-carbonyl)-N-(m-tolyl)-4,5,6,7-tetrahydro-1H-pyrazolo[4,3-c]pyridine-3-carboxamide] | 8 nM | 0.5 nM | 
C=CC(=O)N1CCC(NC(=O)c2nn(Cc3ccc(F)cc3)c3c2CN(C(=O)c2ccc[nH]2)CC3C)C1 (stereo not shown) [ISO-2-9, N-(1-acryloylpyrrolidin-3-yl)-1-(4-fluorobenzyl)-7-methyl-5-(1H-pyrrole-2-carbonyl)-4,5,6,7-tetrahydro-1H-pyrazolo[4,3-c]pyridine-3-carboxamide] | > 10000 nM | > 10000 nM | > 10000 nM

Further lines, results first:

IC50 [1] | IC50 [2] | IC50 [3] | SMILES
0.8 nM | 0.6 nM | 5740 nM | C=CC(=O)Nc1ccc(NC(=O)c2nn(Cc3ccc(F)cc3)c3c2CN(C(=O)c2ccc[nH]2)CC3C)cc1 (stereo not shown) [ISO-2-25, N-(4-acrylamidophenyl)-1-(4-fluorobenzyl)-7-methyl-5-(1H-pyrrole-2-carbonyl)-4,5,6,7-tetrahydro-1H-pyrazolo[4,3-c]pyridine-3-carboxamide]
21 nM | 10 nM | 2140 nM | C=CC(=O)Nc1ccc(NC(=O)c2nn(Cc3ccc(F)cc3)c3c2CN(C(=O)c2ccc[nH]2)C[C@H]3C)cc1 [ISO-2-25-R]
7720 nM | 1360 nM |  | C=CC(=O)Nc1ccc(NC(=O)c2nn(Cc3ccc(F)cc3)c3c2CN(C(=O)c2ccc[nH]2)C[C@@H]3C)cc1 [ISO-2-25-S]
> 10000 nM | > 10000 nM | > 10000 nM | C=CC(=O)N1CCCC(NC(=O)c2nn(Cc3ccc(F)cc3)c3c2CN(C(=O)c2ccc[nH]2)CC3C)C1 (stereo not shown) [ISO-2-6, N-(1-acryloylpiperidin-3-yl)-1-(4-fluorobenzyl)-7-methyl-5-(1H-pyrrole-2-carbonyl)-4,5,6,7-tetrahydro-1H-pyrazolo[4,3-c]pyridine-3-carboxamide]
8 nM | 1 nM |  | C=CC(=O)Nc1cc(NC(=O)c2nn(Cc3ccc(F)cc3)c3c2CN(C(=O)c2ccc[nH]2)CC3C)ccc1OC (stereo not shown) [ISO-2-30, N-(3-acrylamido-4-methoxyphenyl)-1-(4-fluorobenzyl)-7-methyl-5-(1H-pyrrole-2-carbonyl)-4,5,6,7-tetrahydro-1H-pyrazolo [4,3-c]pyridine-3-carboxamide]
35 nM | 18 nM | > 10000 nM | C=CC(=O)Nc1cc(Cn2nc(C(=O)Nc3cccc(C)c3)c3c2C(C)CN(C(=O)c2ccc[nH]2)C3)ccc1F (stereo not shown) [ISO-2-1, 1-(3-acrylamido-4-fluorobenzyl)-7-methyl-5-(1H-pyrrole-2-carbonyl)-N-(m-tolyl)-4,5,6,7-tetrahydro-1H-pyrazolo[4,3-c]pyridine-3-carboxamide]
247 nM | 153 nM | > 10000 nM | C=CC(=O)Nc1cc(F)ccc1Cn1nc(C(=O)Nc2cccc([C@H](C)O)c2)c2c1C(C)CN(C(=O)c1ccc[nH]1)C2 (stereo partly drawn) [ISO-2-7, 1-(2-acrylamido-4-fluorobenzyl)-N-(3-((S)-1-hydroxyethyl)phenyl)-7-methyl-5-(1H-pyrrole-2-carbonyl)-4,5,6,7-tetrahydro-1H-pyrazolo[4,3-c]pyridine-3-carboxamide]
5550 nM | 149 nM | > 10000 nM | C=CC(=O)Nc1ccc(Cn2nc(C(=O)Nc3cccc(C)c3)c3c2C(C)CN(C(=O)c2ccc[nH]2)C3)cc1C (stereo not shown) [ISO-2-28, 1-(4-acrylamido-3-methylbenzyl)-7-methyl-5-(1H-pyrrole-2-carbonyl)-N-(m-tolyl)-4,5,6,7-tetrahydro-1H-pyrazolo[4,3-c]pyridine-3-carboxamide]
7370 nM | 5480 nM | > 10000 nM | C=CC(=O)NC1CC(NC(=O)c2nn(Cc3ccc(F)cc3)c3c2CN(C(=O)c2ccc[nH]2)CC3C)C1 (stereo not shown) [ISO-2-20, N-(3-acrylamidocyclobutyl)-1-(4-fluorobenzyl)-7-methyl-5-(1H-pyrrole-2-carbonyl)-4,5,6,7-tetrahydro-1H-pyrazolo[4,3-c]pyridine-3-carboxamide]
7500 nM | 3150 nM |  | C=CC(=O)Nc1cccc(CNC(=O)c2nn(Cc3ccc(F)cc3)c3c2CN(C(=O)c2ccc[nH]2)CC3C)c1 (stereo not shown) [ISO-2-32, N-(3-acrylamidobenzyl)-1-(4-fluorobenzyl)-7-methyl-5-(1H-pyrrole-2-carbonyl)-4,5,6,7-tetrahydro-1H-pyrazolo[4,3-c]pyridine-3-carboxamide]
1180 nM | 839 nM |  | C=CC(=O)Nc1cc(NC(=O)c2nn(Cc3ccc(F)cc3)c3c2CN(C(=O)c2ccc[nH]2)C[C@@H]3C)ccc1OC [ISO-2-30-S]
